These results are taken from PMC3817140, “The Role of the Methyltransferase Domain of Bifunctional Restriction Enzyme RM.BpuSI in Cleavage Activity” (PLoS ONE, 2013).

The assay deals with T1, RM.BpuSI (Bacillus pumilus, UniProt G1K3S1).
T1 construct: full-length (REase, helical connector, MTase domain, TRD); recombinant in E. coli ER3081, no tag told; treated with substrate DNA to remove SAM
T1 sequence (G1K3S1 1-878): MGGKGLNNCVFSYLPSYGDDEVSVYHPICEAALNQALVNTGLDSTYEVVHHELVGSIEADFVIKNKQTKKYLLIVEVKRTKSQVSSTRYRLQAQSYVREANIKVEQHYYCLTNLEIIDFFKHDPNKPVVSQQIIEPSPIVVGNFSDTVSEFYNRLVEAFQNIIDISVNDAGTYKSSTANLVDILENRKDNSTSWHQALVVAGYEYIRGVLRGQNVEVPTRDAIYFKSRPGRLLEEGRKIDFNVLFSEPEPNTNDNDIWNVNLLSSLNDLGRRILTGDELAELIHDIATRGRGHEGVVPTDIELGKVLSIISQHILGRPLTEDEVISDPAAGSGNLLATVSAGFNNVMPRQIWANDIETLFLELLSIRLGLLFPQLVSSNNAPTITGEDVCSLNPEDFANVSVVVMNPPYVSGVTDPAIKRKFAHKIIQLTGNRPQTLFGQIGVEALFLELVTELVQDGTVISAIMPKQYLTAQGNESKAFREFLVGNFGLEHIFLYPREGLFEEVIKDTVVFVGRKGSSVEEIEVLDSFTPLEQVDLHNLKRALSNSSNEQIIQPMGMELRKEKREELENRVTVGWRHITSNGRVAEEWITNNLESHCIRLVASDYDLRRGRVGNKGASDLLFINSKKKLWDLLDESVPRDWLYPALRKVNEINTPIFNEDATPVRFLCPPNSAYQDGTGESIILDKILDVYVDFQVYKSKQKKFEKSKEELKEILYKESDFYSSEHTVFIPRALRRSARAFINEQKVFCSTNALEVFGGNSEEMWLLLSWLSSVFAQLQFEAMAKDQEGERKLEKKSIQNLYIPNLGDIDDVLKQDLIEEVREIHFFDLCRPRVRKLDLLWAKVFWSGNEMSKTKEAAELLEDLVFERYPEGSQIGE
Nature of the assay: ANS fluorescence titration. It counts as binding.

Take `C[S+](CC[C@H](N)C(=O)O)C[C@H]1O[C@@H](n2cnc3c(N)ncnc32)[C@H](O)[C@@H]1O` (some centres unmarked) [SAM]: binding was characterised by a dissociation constant (Kd) of 76.4 ± 18.2 µM. On to `Nc1ncnc2c1ncn2[C@@H]1O[C@H](C[C@@H](N)CC[C@H](N)C(=O)O)[C@@H](O)[C@H]1O` [sinefungin], for which the Kd turned out to be 71.1 ± 14.2 µM.
